According to patent publication US12054497B2, “Substituted heterocyclic fused cyclic compound, preparation method therefor and pharmaceutical use thereof” (GENFLEET THERAPEUTICS (SHANGHAI) INC., priority 2019, dated 2024):

How the values were obtained:
KRas G12C = KRas G12C (Homo sapiens (Human), UniProt P01116, G12C); assay: Nucleotide exchange assay (NEA)-HTRF, SOS1 catalyzed displacement of GDP by GTP (Test Example 4); type: biochemical
Description: The effects of compounds on SOS1 catalyzed displacement of GDP by GTP on KRas proteins was examined by homogeneous time-resolved fluorescence (HTRF). 30 μM 6×his labeled KRas G12C recombinant protein and 80 μM fluorochrome DY647 labeled GDP were co-incubated in a labeling buffer (1 mM DTT, 7.5 mM EDTA, 25 mM Tris-HCl, 45 mM NaCl) at 20° C. away from light for 2 hours. Protein quantification was performed after purification on the NAP-5 column to determine the concentration of KRas G12C-GDP.
1000× stock solutions of compounds at a concentration gradient of 3.16 were prepared by using DMSO, and diluted 250 times by a reaction buffer (40 mM N-2-hydroxyethylpiperazine-N-2-ethane sulfonic acid (HEPES), 10 mM MgCl2, 1 mM DTT, 0.002% Triton X-100) into 4× stock solutions of compounds. KRas G12C-GDP/Tb working solution (40 nM KRas G12C-GDP, 1×anti-his Tb) and SOS1/GTP working solution (0.2 μM SOS1, 200 μM GTP) were prepared by using the reaction buffer.
5 μl of 4×stock solution of a compound and 10 μl of KRas G12C-GDP/T working solution were added to each well of 96-well plate with white unclear bottom, and 5 μl of reaction buffer was added to the well of control group in stead of the 4×stock solution of a compound. After incubation at 20° C. away from light for 15 minutes, 5 μl of SOS1/GTP working solution was added and incubated at 20° C. away from light for 2 hours, and then a value of fluorescence intensity was read (excitation wavelength: 320 nm, and emission wavelengths: 615 nm and 665 nm). Besides, group TO was established with 10 μl of the reaction buffer and 10 μl of the KRas G12C-GDP/Tb working solution, and the value of fluorescence intensity was directly read. A relative light unit (RLU) was calculated by the following equation: RLU=(665 nm signal/615 nm signal)×10^4; and the inhibition rate (IR) of the compound was calculated by the following equation: IR (%)=(RLUcompound−RLUcontrol)/(RLUT0−RLUcontrol)×100%. The value of IC50 was calculated by fitting a gradiently diluted concentration of the compound and the corresponding cell proliferation inhibition rate using a four-parameter method.

[1] = test system: A549 cells with Kras G12S mutation; assay: Cell proliferation inhibition experiment, 3D spheroid, CellTiter-Glo (Test Example 1); type: cell-based, human; conditions: 5 days
Description: (§1) NCI-H358 was a human NSCLC cell line with Kras G12C mutation, which was cultured in a RPMI-1640 medium with 10% fetal bovine serum (FBS). A549 was a human lung adenocarcinoma cell line with Kras G12S mutation, which was cultured in an F-12K medium with 10% FBS. Cells in logarithmic growth phase were detached with trypsin and EDTA, collected and counted, and H358 was regulated to 1.8E4 cells/ml by using an RPMI-1640 medium with 2% FBS, while A549 was regulated to 8.9E3 cells/ml with an F-12K medium containing 2% FBS. 800 (45 μl) H358 cells and 400 (45 μl) A549 cells were seeded to 384-well spheroid plates, respectively, and cultured overnight to establish 3D cell models. 1000× stock solutions of compounds at a concentration gradient of 3.16 were prepared by using DMSO, and diluted 100 times by the medium with 2% FBS into 10× stock solutions of compounds. On the day after cell seeding, 5 μl of 10× stock solution of a compound was added to each well of cell culture plate, with a final concentration being 1× and a DMSO content of 0.1%. DMSO was used as the control, and the medium with 2% FBS was used as blank control group. After 5 days of cell culture with the compound, 25 μl of CellTiter-Glo working solution was added to each well, and mixed uniformly at 400 rpm and incubation for 30 minutes. After standing at room temperature for 30 minutes, 40 μl of mixed solution was transferred to a 384-well plate with white clear bottom. A value of luminescence was then read, and a cell proliferation inhibition rate (IR) (%)=(RLU control-RLU compound)/(RLU control−RLU blank)×100%. The value of IC50 was calculated by fitting a gradiently diluted concentration of the compound and the corresponding cell proliferation inhibition rate using a Prism 6 four-parameter method.

[2] = test system: NCI-H358 cells with Kras G12C mutation; assay: as above; type: cell-based, human; conditions: 5 days
Description: as §1

[3] = test system: subcutaneous xenograft tumor model of MIA PaCa-2; assay: In vivo pharmacodynamic experiment, tumor growth inhibition (Test Example 5); set-up: species or system BALB/c nude mice; conditions: p.o., QD; for TGI: day 14
Description: Experimental objective: to evaluate the in vivo pharmaceutical effects of tested compounds on the subcutaneous xenograft tumor model of MIA PaCa-2.
Experimental operation: 6 to 8 weeks old female BALB/c nude mice each having the body weight of 18-20 g were chosen. MIA PaCa-2 cells were cultured in DMEM containing 10% FBS, 2.5% HS and 1% penicillin-streptomycin at 37° C. in an incubator with 5% CO2. Cells were collected. The MIA PaCa-2 cells were subcutaneously inoculated to the animals at their backs on the right, 2.0×10^6 cells (0.1 mL) for each animal. When tumor grew to 190-311 mm^3, mice with tumor having a suitable size were chosen and treated in groups, with administration dosages shown in Table 5 below. The animals were weighed on an electronic balance each day. The tumor volume was investigated by using a vernier caliper twice a week. The tumor volume was calculated by the following equation: V=0.5 a×b^2, a and b representing the long diameter and the short diameter of the tumor, respectively. The tumor volume was used to calculate a tumor growth inhibition rate (TGI), and the TGI shown in the form of a percentage was used to indicate the antineoplastic activity of a compound. The TGI was calculated by the following equation: TGI (%)=[1−avTi−0/avCi−0)]×100, with avTi−0 representing the average tumor volume of the group administrated with the compound on a specific day minus the average tumor volume of this group on the day of grouping, and avCi−0 representing the average tumor volume of the solvent control group on a specific day minus the average tumor volume of the solvent control group on the day of grouping. The tumor volume was shown in the form of an average value±standard error of mean (SEM).

[4] = test system: MIA PaCa-2 cells with Kras G12C mutation; assay: Cell proliferation inhibition experiment, 3D spheroid, CellTiter-Glo (Test Example 3); type: cell-based, human; conditions: Homo sapiens, MIA PaCa-2, 120 h, 5 days, read-out: MIA-PaCa2 IC50
Description: MIA PaCa-2 was a human pancreatic carcinoma cell line with Kras G12C mutation, which was cultured in a DMEM with 10% FBS and 2.5% Horse serum. A549 was a human lung adenocarcinoma cell line with Kras G12S mutation, which was cultured in an F-12K medium with 10% FBS. Cells in logarithmic growth phase were detached with trypsin and EDTA, collected and counted, and 200 MIA PaCa-2 cells and 400 A549 cells were seeded to 384-well spheroid plates, respectively, and cultured overnight to establish 3D cell models. 1000× stock solutions of compounds at a concentration gradient of 3.16 were prepared by using DMSO, and diluted 100 times by the medium into 10× stock solutions of compounds. On the day after cell seeding, 10× stock solution of a compound was added to each well of cell culture plate, with a final concentration being 1× and a DMSO content of 0.1%. DMSO was used as the control, and the medium was used as the blank. After 5 days of cell culture with the compound, 30 μl of CellTiter-Glo working solution was added to each well, and mixed uniformly and incubation for 30 minutes. After standing at room temperature for 30 minutes, 40 μl of mixed solution was transferred to a 384-well plate with white unclear bottom. A value of luminescence intensity was then read, and a cell proliferation inhibition rate (IR) (%)=(RLU control−RLU compound)/(RLU control−RLU blank)×100%. The value of IC50 was calculated by fitting a gradiently diluted concentration of the compound and the corresponding cell proliferation inhibition rate using an XLFit four-parameter method.

[5] = test system: phosphorylated ERK in MIA PaCa2 cells with Kras G12C mutation; assay: p-ERK HTRF assay for cells (Test Example 2); type: cell-based, human; conditions: Homo sapiens, MIA PaCa-2, 2 h, MIA PaCa2 cells, 2 hours with compound; read-out: p-ERK IC50
Description: MIA PaCa2 was a human pancreatic carcinoma cell line with Kras G12C mutation, which was cultured in a DMEM with 10% FBS and 2.5% Horse serum. Cells in logarithmic growth phase were detached with trypsin and EDTA, collected and counted, and 2.5E4 cells were seeded to a 96-well cell culture plate and cultured overnight. 1000× stock solutions of compounds at a concentration gradient of 3.16 were prepared by using DMSO, and diluted 200 times by the medium into 5× stock solutions of compounds. On the day after cell seeding, 5× stock solution of a compound was added to each well of cell culture plate, with a final concentration being 1× and a DMSO content of 0.1%. DMSO was used as the control. The residual culture was removed after culturing for 2 hours with the compound. To each well, 50 ul of cell lysis buffer was added and mixed uniformly and incubation for 30 minutes. Subsequently, 16 ul of mixed solution was transferred to a 96-well plate with white unclear bottom, and 16 ul of cell lysis buffer was added to the blank control group. After the completion of transfer, 4 ul of p-ERK HTRF antibody mixture was added to each well, and a value of fluorescence intensity was read after incubation for 4 hours. The inhibition rate (IR) of the compound was calculated by the following equation: IR (%)=(RLU control-RLU compound)/(RLU control−RLU blank)×100%. The value of IC50 was calculated by fitting a gradiently diluted concentration of the compound and the corresponding cell proliferation inhibition rate using a Prism 8 four-parameter method.

Sequence of KRas G12C (P01116-2 other isoform, or with tags, fused parts or gaps G12C): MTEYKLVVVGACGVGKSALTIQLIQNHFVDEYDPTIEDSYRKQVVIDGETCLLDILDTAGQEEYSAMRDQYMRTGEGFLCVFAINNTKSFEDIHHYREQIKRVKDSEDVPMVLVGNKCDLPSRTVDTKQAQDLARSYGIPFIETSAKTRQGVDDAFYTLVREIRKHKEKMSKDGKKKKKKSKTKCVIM

SMILES | IC50 (KRas G12C) | IC50 [1] | IC50 [2] | IC50 ([1]; Homo sapiens, A549, 120 h) | also measured
C=CC(=O)N1CCN2c3c(c(=O)n(-c4c(C)ccnc4C(C)C)c4nc(-c5c(O)cccc5F)c(F)cc34)OC[C@H]2C1 (atropisomer, axis not shown) [Compound Z1-2] | 1430 nM |  |  |  | 
C=CC(=O)N1C[C@@H]2C(=O)N(C)c3c(c4cc(F)c(-c5c(O)cccc5F)nc4n(-c4c(C#N)cccc4C(C)C)c3=O)N2C[C@H]1C (atropisomer, axis not shown) [Compound Z38-2, 2-((2R,4aR)-3-acryloyl-11-fluoro-10-(2-fluoro-6-hydroxyphenyl)-2,6-dimethyl-5,7-dioxo-2,3,4,4a,5,6-hexahydro-1H-pyrazino[1′,2′:4,5]pyrazino[2,3-c][1,8]naphthyridin-8(7H)-yl)-3-isopropylbenzonitrile] | 2150 nM | > 30000 nM | 513 nM |  | 
C=CC(=O)N1CCN2c3c(c(=O)n(-c4c(C)ccnc4C(C)C)c4nc(-c5c(O)cccc5F)c(F)cc34)N(C)C(=O)[C@H]2C1 (single isomer, unassigned) [Compound Z9-1] | 2570 nM |  | 218 nM | > 10000 nM | 
C=CC(=O)N1CCN2c3c(c(=O)n(-c4c(C)ncnc4C(C)C)c4nc(-c5c(O)cccc5F)c(F)cc34)N(C)C(=O)[C@H]2C1 (single isomer, unassigned) [Compound Z21-2] | 3940 nM | > 30000 nM | 407 nM |  | 
C=CC(=O)N1CCN2c3c(c(=O)n(-c4c(C)ccnc4C(C)C)c4nc(-c5c(O)cccc5F)c(Cl)cc34)N(C)C(=O)[C@H]2C1 (single isomer, unassigned) [Compound Z25-1] | 951 nM |  | 50 nM | > 30000 nM | 
[2H]C([2H])([2H])N1C(=O)[C@H]2CN(C(=O)C=C)CCN2c2c1c(=O)n(-c1c(C)ccnc1C(C)C)c1nc(-c3c(O)cccc3F)c(Cl)cc21 (single isomer, unassigned) [Compound Z26-1] | 868 nM | > 30000 nM | 42 nM |  | 
C=CC(=O)N1CCN2c3c(c(=O)n(-c4c(C(C)C)ncnc4C(C)C)c4c(F)c(-c5c(O)cccc5F)c(Cl)cc34)NC(=O)[C@H]2C1 (single isomer, unassigned) [Compound Z37-2] | 1900 nM | 3320 nM | 165 nM |  | 
[2H]C([2H])([2H])N1C(=O)[C@H]2CN(C(=O)C=C)CCN2c2c1c(=O)n(-c1c(C(C)C)ncnc1C(C)C)c1c(F)c(-c3c(O)cccc3F)c(Cl)cc21 (single isomer, unassigned) [Compound Z39-2] | 2240 nM | 7780 nM | 316 nM |  | 
C=CC(=O)N1C[C@@H]2C(=O)N(C)c3c(c4cc(Cl)c(-c5c(O)cccc5F)nc4n(-c4c(C(C)C)ncnc4C(C)C)c3=O)N2C[C@H]1C [Compound Z23, (2R,4aR)-3-acryloyl-11-chloro-8-(4,6-diisopropylpyrimidin-5-yl)-10-(2-fluoro-6-hydroxyphenyl)-2,6-dimethyl-2,3,4,4a,6,8-hexahydro-1H-pyrazino[1′,2′:4,5]pyrazino[2,3-c][1,8]naphthyridin-5,7-dione] |  |  |  | 10500 nM | Tumor Volume on Day 14 after Administration ([3]; 1 mg/kg): 194.65 mm^3; TGI ([3]; 1 mg/kg): 113.2%; Tumor Volume on Day 14 after Administration ([3]; 3 mg/kg): 59.52 mm^3; TGI ([3]; 3 mg/kg): 143.5%; Tumor Volume on Day 14 after Administration ([3]; 10 mg/kg): 47.32 mm^3; TGI ([3]; 10 mg/kg): 149.2%; IC50 [4]: 2 nM; IC50 [5]: 17 nM; IC50 ([2]; Homo sapiens, NCI-H358, 120 h): 2 nM
